Columns and labels:
HCT‐116 cells = experiment: CCK‐8 cell viability assay, HCT‐116; format: cell-based, human; conditions: CCK‐8, 48 h, triplicate; peptides 5–45 μg·mL^−1; 5‐FU positive control 0.1–5 mM; vs negative control
Source text: (§1) Human breast cancer MCF‐7 (RRID:CVCL_0031), human lung cancer A549 (RRID:CVCL_0023), human colon cancer HCT‐116 (RRID:CVCL_0291), human cervical cancer Hela (RRID:CVCL_0030), human hepatoma HepG2 (RRID:CVCL_0027), human gastric cancer SGC‐7901 (RRID:CVCL_0520) and human non‐tumor mamma gland epithelial MCF‐10A (RRID:CVCL_0598) and transformed human liver epithelial‐2 (THLE‐2) (RRID:CVCL_3803) cells were obtained from Shanghai Donghuan Biotechnology (Shanghai, China). All cell lines had been authenticated in the past 3 years and again within 4 months after completion of the experiments. All cell lines had been tested for mycoplasma contamination frequently. Their identities were characterized by short tandem repeat analysis. All of these cell lines were cultured in high glucose Dulbecco's modified Eagle's medium supplemented by 10% fetal bovine serum, 100 units·mL^−1 penicillin and 100 μg·mL^−1 streptomycin (complete culture medium).
(§2) MCF‐7 cells (1 × 10^4 cells per well) were treated in triplicate with different doses of each type of RC extract in 96‐well plates for varying time periods. The negative control cells were treated with the diluent of physiological saline, whereas positive control cells were treated with different concentrations (0.1–5 mM) of 5‐fluorouracil (5‐FU) (Leica, Wetzlar, Germany). During the last hour of culture, each well of cells was treated with 10 μL of CCK‐8 solution. The absorbance of the supernatants of individual wells was measured at 450 nm using a microplate reader. Similarly, the effect of different synthesized RCPs (5–45 μg·mL^−1) on the viability of different types of human cancer cells was tested with CCK‐8 assays using the diluent of physiological saline containing the same concentration of dimethylsulfoxide as a negative control and the same concentrations of 5‐FU as the positive controls. Ten RCPs with a predicted strong bioactivity were synthesized by GenScript ([…]) and their purity, sequences and solubility are shown in Table 1. […] The formula used to calculate the cytotoxicity rate of each concentration of RCP was: Cytotoxicity rate (%) = (absorbance value of the control group − absorbance value of the experimental group)/absorbance value of the control group × 100%. In addition, MCF‐7 cells were treated with each type of RCP at 45 μg·mL^−1 for 12–72 h and the dynamic impact of RCP treatment on the viability of MCF‐7 cells was determined every 12 h using CCK‐8 assays.
(§3) Data are expressed as the mean ± SEM. The data distribution was analyzed by Shapiro–Wilk test. The IC50 values of each peptide for individual cell lines were determined using the PRISM, version 8 (GraphPad Software Inc.). Briefly, all dose–response data were converted into […], which were automatically analyzed by PRISM for non‐linear regression to determine and report the IC50 and its SD for each peptide in a specific cell line. The difference among groups was analyzed by analysis of variance and post‐hoc Tukey's tests and the comparison between groups was performed using Student's t‐test and PRISM, version 8 (GraphPad Software Inc.). P < 0.05 was considered statistically significant.

THLE‐2 cells = experiment: CCK‐8 cell viability assay, non‐tumor THLE‐2; format: cell-based, human; conditions: CCK‐8, 48 h, triplicate; peptides 5–45 μg·mL^−1; 5‐FU positive control 0.1–5 mM; vs negative control
Source text: as §1, §2, §3

[1] = test system: cancer cells (MCF‐7, A549, HCT‐116, Hela, HepG2, SGC‐7901) vs non‐tumor MCF‐10A and THLE‐2 cells; experiment: CCK‐8 cytotoxicity, preference for cancer cells over non‐tumor cells; format: cell-based, human; parameters: cytotoxicity against non‐tumor MCF‐10A and THLE‐2 cells compared with tumor cell lines: dose or concentration left out as unconfirmed; conditions: for preference of cytotoxicity for cancer cells over non‐tumor cells: 5–45 μg·mL^−1, 48 h, CCK‐8
Source text: as §1, §2, §3

MCF‐10A cells = experiment: CCK‐8 cell viability assay, non‐tumor MCF‐10A; format: cell-based, human; conditions: CCK‐8, 48 h, triplicate; peptides 5–45 μg·mL^−1; 5‐FU positive control 0.1–5 mM; vs negative control
Source text: as §1, §2, §3

[2] = Solubility of the synthesized peptides; format: physicochemical; conditions: for Solubility: solvent given for the synthesized peptide (GenScript)
MCF‐7 cells = experiment: CCK‐8 cell viability assay, MCF‐7; format: cell-based, human; conditions: for viability of MCF‐7 cells: CCK‐8, 48 h, triplicate, peptides 5–45 μg·mL^−1, 5‐FU positive control 0.1–5 mM, vs negative control
Source text: as §1, §2, §3

Hela cells = experiment: CCK‐8 cell viability assay, Hela; format: cell-based, human; conditions: CCK‐8, 48 h, triplicate; peptides 5–45 μg·mL^−1; 5‐FU positive control 0.1–5 mM; vs negative control
Source text: as §1, §2, §3

HepG2 cells = experiment: CCK‐8 cell viability assay, HepG2; format: cell-based, human; conditions: CCK‐8, 48 h, triplicate; peptides 5–45 μg·mL^−1; 5‐FU positive control 0.1–5 mM; vs negative control
Source text: as §1, §2, §3

A549 cells = experiment: CCK‐8 cell viability assay, A549; format: cell-based, human; conditions: CCK‐8, 48 h, triplicate; peptides 5–45 μg·mL^−1; 5‐FU positive control 0.1–5 mM; vs negative control
Source text: as §1, §2, §3

SGC‐7901 cells = experiment: CCK‐8 cell viability assay, SGC‐7901; format: cell-based, human; conditions: CCK‐8, 48 h, triplicate; peptides 5–45 μg·mL^−1; 5‐FU positive control 0.1–5 mM; vs negative control
Source text: as §1, §2, §3

| Solubility [2] | aqueous solubility ([2]; in words) | Sequence | viability of HCT‐116 cells (HCT‐116 cells) | viability of non‐tumor THLE‐2 cells (THLE‐2 cells) | preference of cytotoxicity for cancer cells over non‐tumor cells [1] | viability of non‐tumor MCF‐10A cells (MCF‐10A cells) | viability of MCF‐7 cells (MCF‐7 cells) | viability of Hela cells (Hela cells) | viability of HepG2 cells (HepG2 cells) | viability of A549 cells (A549 cells) | viability of SGC‐7901 cells (SGC‐7901 cells) | cytotoxicity against non‐tumor MCF‐10A and THLE‐2 cells compared with tumor cell lines ([1]; 48 h, P < 0.05 or P < 0.01) | dynamic cytotoxicity against MCF‐7 cells (MCF‐7 cells; 45 μg·mL^−1, 12–72 h, CCK‐8 every 12 h, maintained at highest levels to 72 h) |
| --- | --- | --- | --- | --- | --- | --- | --- | --- | --- | --- | --- | --- | --- |
| 0.1% Dimethylsulfoxide |  | RFFESFGDL [RCP‐7, synthesized 9‐mer renal cell peptide from GLOBIN domain‐containing protein, protamex‐digested] | decreased the viability | decreased the viability | did not preferably decrease the viability of tumor cells | decreased the viability | decreased the viability | decreased the viability | decreased the viability | decreased the viability | decreased the viability |  |  |
| Water, pH 7.0 |  | SSGCPPLPPRRGAPAGWLSH [RCP‐2, synthesized 20‐mer renal cell peptide from Brain‐derived neurotrophic factor, trypsin digested] | decreased the viability | decreased the viability | did not preferably decrease the viability of tumor cells | decreased the viability | decreased the viability | decreased the viability | decreased the viability | decreased the viability | decreased the viability |  |  |
| 0.1% Dimethylsulfoxide | low aqueous solubility | VCMRVCRTWSRWCYDKRLWP [RCP‐5, synthesized 20‐mer renal cell peptide from F‐box and leucine‐rich repeat protein 19, trypsin digested] | significantly decreased the viability | only treatment with the highest doses of them slightly reduced the viability | potent cytotoxicity preferably against cancer cells | only treatment with the highest doses of them slightly reduced the viability | significantly decreased the viability | significantly decreased the viability | significantly decreased the viability | significantly decreased the viability | significantly decreased the viability | statistically lower than tumor cell lines | increased with time from 12 h post treatment to 48 h |

From PMC12582985, “Preparation and characterization of renal cell peptides from fetal rats for their antitumor activity” (FEBS Open Bio, 2025)
